Where “and” joins values, the source holds several entries; their conditions need not be identical. Equal values may be shown once.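 Test compounds were applied to cells in 96-well plates for 48 hours at 5 doses. GI50 = concentration required for 50% inhibition of growth. TGI marks complete inhibition of growth.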
Tests used:
Test in all cases: growth of human tumour cells (NCI), 48 h
[1] = tested on: A498 renal
[2] = tested on: ACHN renal
[3] = tested on: BT-549 breast
[4] = tested on: HOP-62 NSCLC
[5] = tested on: MOLT-4 leukemia
[6] = tested on: OVCAR-3 ovarian
[7] = tested on: OVCAR-4 ovarian
[8] = tested on: RPMI-8226 leukemia
[9] = tested on: SNB-19 CNS
[10] = tested on: SW-620 colon

Compound	GI50 [1]	TGI [1]	GI50 [2]	TGI [2]	GI50 [3]	TGI [3]	GI50 [4]	TGI [4]	GI50 [5]	TGI [5]	GI50 [6]	TGI [6]	GI50 [7]	TGI [7]	GI50 [8]	TGI [8]	GI50 [9]	TGI [9]	GI50 [10]	TGI [10]
COc1ccc(/C=C2\CCC/C(=C\c3ccc(OC)c(OC)c3)C2=O)cc1OC	3.88 µM	> 32.5 µM	5.04 µM	> 32.5 µM	1.7 µM	> 32.5 µM	4.59 µM	> 32.5 µM	4.74 µM	> 32.5 µM	2.17 µM	> 32.5 µM	3.28 µM	> 32.5 µM	1.15 µM	> 32.5 µM	20.8 µM	> 32.5 µM	1.49 µM	24.1 µM
COC12C(COC(=O)NCCO)C3=C(C(=O)C(C)=C(N)C3=O)N1CC1NC12 (stereo not given)	–	122 µM	13.3 µM	142 µM	–	171 µM	28.4 µM	74.7 µM and 139 µM	–	> 264 µM	56.2 µM	141 µM	53.2 µM	119 µM	–	> 264 µM	–	169 µM	26.7 µM	110 µM
Cc1cc(Br)c(NC(=O)c2c(-c3c(Cl)cccc3Cl)noc2C)c(Br)c1	> 100 µM	> 100 µM	> 100 µM	> 100 µM	> 100 µM	> 100 µM	30.8 µM	> 100 µM	> 100 µM	> 100 µM	> 100 µM	> 100 µM	73.4 µM	> 100 µM	> 100 µM	> 100 µM	> 100 µM	> 100 µM	> 100 µM	> 100 µM

Reference: PubChem BioAssay (NCI)
